ChEMBL document CHEMBL5465560, “Selectivity Literature for EUbOPEN Chemogenomic Library” (2024)
Each block holds one compound with its values, some of them ahead of it.

How the values were obtained:
[1] = target: Phosphatidylinositol 4,5-bisphosphate 3-kinase catalytic subunit alpha isoform (Homo sapiens) (UniProt P42336); assay: Selectivity interaction (Kinase panel (Eurofins)) EUB0001564a PIK3CA; conditions: at 1 µM
[2] = target: T1, NUAK family SNF1-like kinase 2 (Homo sapiens) (UniProt Q9H093); assay: Selectivity interaction (Ambit KINOMEscan and KiNATiv profiling in Jurkat cells) EUB0000090b NUAK2; assay type: cell-based; conditions: at 1 µM
T1 sequence (whole entry): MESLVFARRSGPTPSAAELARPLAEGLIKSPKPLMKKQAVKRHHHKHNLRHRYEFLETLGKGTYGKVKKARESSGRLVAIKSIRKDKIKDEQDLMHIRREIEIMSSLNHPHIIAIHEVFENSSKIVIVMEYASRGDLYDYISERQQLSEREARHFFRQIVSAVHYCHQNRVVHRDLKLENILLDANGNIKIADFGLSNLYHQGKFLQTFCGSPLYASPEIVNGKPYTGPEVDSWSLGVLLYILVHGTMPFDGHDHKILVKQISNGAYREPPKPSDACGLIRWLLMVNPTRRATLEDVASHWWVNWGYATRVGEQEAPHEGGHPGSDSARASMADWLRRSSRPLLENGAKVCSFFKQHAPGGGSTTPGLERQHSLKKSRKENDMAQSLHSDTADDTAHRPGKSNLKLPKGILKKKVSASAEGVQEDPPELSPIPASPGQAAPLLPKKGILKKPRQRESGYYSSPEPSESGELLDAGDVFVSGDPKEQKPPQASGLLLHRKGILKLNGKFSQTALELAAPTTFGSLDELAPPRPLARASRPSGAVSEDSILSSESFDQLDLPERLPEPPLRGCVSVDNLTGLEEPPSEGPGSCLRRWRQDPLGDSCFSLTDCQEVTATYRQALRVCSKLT

[3] = target: Casein kinase I isoform alpha (Homo sapiens, UniProt P48729); assay: Selectivity interaction (KinomeScan (DiscoverX)) EUB0000655a CSNK1A1; conditions: at 10 µM
[4] = target: T2, Protein kinase C epsilon type (Homo sapiens) (UniProt Q02156); assay: Selectivity interaction (KinomeScan (DiscoverX)) EUB0000607a PRKCE; conditions: at 10 µM
T2 sequence (whole entry): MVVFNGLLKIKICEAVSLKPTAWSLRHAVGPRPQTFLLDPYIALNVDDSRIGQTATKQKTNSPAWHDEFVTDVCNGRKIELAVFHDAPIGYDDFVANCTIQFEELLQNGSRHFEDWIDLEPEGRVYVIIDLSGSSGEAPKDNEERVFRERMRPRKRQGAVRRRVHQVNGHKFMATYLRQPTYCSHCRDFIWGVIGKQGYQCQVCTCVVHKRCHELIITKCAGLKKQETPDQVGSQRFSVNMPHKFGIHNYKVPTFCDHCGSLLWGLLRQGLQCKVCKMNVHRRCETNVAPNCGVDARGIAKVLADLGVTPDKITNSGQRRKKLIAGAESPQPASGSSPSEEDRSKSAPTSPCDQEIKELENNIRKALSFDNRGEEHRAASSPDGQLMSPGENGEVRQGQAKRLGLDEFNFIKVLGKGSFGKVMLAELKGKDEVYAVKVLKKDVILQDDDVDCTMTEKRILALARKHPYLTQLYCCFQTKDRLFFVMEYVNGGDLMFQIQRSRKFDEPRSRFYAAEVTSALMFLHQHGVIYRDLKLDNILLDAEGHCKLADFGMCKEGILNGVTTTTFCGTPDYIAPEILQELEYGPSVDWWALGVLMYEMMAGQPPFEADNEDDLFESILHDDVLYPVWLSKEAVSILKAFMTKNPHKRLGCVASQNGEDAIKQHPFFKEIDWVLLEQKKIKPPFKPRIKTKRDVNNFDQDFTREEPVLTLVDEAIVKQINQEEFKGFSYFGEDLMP

[5] = target: Ribosomal protein S6 kinase alpha-4 (Homo sapiens) (UniProt O75676); conditions: at 10 µM
[6] = target: Cyclin-dependent kinase 7 (Homo sapiens, UniProt P50613); assay: Selectivity interaction (ActivX KiNativ screen (kinase selectivity in THP-1 cell lysates)) EUB0000639a CDK7; assay type: subcellular; conditions: lysate, at 1 µM
[7] = target: T1, NUAK family SNF1-like kinase 2 (Homo sapiens); assay: Selectivity interaction (KinomeScan (DiscoverX)) EUB0001049a NUAK2; conditions: at 1 µM
[8] = target: Mitogen-activated protein kinase kinase kinase 9 (Homo sapiens) (UniProt P80192); assay: Selectivity interaction (KinomeScan (DiscoverX)) EUB0000666a MAP3K9; conditions: at 10 µM
[9] = target: T3, Interleukin-1 receptor-associated kinase 4 (Homo sapiens, UniProt Q9NWZ3); assay: Selectivity interaction (Enzymatic assay) EUB0001550a IRAK4
T3 sequence (Q9NWZ3 whole entry): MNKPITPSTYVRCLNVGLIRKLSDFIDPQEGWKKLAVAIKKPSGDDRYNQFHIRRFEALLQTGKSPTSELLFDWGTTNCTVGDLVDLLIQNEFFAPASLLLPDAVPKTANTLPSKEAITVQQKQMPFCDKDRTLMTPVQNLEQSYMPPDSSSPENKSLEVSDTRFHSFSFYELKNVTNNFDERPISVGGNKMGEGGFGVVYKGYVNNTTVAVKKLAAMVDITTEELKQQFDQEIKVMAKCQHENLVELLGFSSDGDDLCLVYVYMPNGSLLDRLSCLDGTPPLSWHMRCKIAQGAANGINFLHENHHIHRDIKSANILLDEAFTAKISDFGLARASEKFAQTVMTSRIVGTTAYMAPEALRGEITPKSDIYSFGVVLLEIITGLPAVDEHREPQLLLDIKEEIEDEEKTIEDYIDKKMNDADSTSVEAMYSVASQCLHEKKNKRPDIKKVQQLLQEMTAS

[10] = target: Mitogen-activated protein kinase kinase kinase 20 (Homo sapiens) (UniProt Q9NYL2); assay: Selectivity interaction (LanthaScreen Eu Kinase Binding Assay) EUB0001632a MAP3K20; conditions: at 10 µM
[11] = target: T4, Membrane-associated tyrosine- and threonine-specific cdc2-inhibitory kinase (Homo sapiens) (UniProt Q99640); assay: Selectivity interaction (KinomeScan (DiscoverX)) EUB0000695a PKMYT1; conditions: at 100 nM
T4 sequence (whole entry): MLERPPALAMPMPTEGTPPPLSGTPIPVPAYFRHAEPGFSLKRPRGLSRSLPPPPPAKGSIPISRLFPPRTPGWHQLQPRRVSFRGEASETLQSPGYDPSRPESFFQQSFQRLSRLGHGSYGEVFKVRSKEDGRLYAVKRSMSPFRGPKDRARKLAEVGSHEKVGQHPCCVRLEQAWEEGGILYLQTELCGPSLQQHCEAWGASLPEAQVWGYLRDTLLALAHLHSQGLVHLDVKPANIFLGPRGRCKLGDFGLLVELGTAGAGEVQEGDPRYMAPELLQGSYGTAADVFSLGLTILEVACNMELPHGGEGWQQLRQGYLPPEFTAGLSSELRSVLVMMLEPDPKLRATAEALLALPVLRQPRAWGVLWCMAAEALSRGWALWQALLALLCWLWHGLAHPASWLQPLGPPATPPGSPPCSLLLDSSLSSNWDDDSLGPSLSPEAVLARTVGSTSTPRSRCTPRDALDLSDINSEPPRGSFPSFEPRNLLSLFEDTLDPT

Cyclin-dependent kinase 7, sequence (P50613 whole entry): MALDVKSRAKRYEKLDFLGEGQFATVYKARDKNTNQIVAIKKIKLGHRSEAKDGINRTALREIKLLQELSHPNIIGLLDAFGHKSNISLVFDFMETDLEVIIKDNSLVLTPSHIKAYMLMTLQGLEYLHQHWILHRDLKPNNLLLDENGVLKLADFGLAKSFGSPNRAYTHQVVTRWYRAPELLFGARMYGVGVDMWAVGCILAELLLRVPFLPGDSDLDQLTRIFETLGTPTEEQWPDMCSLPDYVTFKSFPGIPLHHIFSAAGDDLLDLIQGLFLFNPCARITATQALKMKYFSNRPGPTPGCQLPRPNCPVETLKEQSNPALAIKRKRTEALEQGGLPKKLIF
Mitogen-activated protein kinase kinase kinase 20 (Homo sapiens), sequence (Q9NYL2 2-800 limits assumed): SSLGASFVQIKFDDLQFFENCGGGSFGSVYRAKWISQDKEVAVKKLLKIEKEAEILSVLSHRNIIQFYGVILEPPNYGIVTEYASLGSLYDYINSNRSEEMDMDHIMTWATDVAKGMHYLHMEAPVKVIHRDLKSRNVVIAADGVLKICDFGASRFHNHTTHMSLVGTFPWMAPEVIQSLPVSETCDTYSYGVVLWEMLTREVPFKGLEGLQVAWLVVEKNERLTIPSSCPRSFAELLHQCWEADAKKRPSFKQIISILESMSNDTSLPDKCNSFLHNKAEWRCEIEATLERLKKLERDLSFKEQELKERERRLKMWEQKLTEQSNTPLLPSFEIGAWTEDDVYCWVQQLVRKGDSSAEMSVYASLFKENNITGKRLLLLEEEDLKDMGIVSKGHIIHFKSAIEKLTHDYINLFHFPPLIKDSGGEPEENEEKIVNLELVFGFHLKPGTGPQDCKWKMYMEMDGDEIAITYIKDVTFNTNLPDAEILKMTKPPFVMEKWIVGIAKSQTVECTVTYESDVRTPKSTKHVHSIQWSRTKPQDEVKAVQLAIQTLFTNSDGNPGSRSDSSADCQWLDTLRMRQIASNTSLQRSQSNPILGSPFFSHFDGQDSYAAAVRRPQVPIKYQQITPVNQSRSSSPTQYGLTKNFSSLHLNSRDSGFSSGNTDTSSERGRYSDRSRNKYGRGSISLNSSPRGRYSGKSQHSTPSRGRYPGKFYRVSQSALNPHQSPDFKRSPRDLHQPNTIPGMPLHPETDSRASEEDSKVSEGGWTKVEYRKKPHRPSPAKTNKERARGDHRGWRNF
Casein kinase I isoform alpha, sequence (P48729 2-337 limits assumed): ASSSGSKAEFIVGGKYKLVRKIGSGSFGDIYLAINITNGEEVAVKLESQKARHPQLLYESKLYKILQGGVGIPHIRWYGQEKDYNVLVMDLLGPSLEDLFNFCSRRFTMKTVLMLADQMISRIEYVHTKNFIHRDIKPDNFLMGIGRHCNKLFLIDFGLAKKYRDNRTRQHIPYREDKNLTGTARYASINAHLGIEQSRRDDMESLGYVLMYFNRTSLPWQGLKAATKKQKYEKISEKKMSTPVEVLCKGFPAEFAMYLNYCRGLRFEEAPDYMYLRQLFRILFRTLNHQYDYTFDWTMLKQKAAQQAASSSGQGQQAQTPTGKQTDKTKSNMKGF
Ribosomal protein S6 kinase alpha-4 (Homo sapiens), sequence (O75676 whole entry, looked up): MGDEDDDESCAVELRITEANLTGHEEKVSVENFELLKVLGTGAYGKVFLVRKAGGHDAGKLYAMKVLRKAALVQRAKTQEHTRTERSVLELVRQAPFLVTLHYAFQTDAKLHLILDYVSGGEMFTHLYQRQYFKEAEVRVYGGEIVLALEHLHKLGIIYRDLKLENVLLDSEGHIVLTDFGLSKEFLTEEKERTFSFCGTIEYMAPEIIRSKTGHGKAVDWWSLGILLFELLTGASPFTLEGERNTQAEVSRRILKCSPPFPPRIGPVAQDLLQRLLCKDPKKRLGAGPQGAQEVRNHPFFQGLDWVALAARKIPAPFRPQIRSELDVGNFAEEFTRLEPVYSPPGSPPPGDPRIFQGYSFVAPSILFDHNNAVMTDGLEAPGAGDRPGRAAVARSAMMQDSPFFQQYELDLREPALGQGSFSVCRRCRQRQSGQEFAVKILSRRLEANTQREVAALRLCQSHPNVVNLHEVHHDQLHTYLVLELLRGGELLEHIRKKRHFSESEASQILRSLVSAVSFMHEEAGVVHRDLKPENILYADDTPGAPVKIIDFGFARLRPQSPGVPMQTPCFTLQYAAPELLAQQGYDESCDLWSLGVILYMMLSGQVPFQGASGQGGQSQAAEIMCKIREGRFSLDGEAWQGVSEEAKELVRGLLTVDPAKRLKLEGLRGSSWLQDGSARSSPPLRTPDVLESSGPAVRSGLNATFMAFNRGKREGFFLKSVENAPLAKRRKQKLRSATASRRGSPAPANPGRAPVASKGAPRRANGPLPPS
Mitogen-activated protein kinase kinase kinase 9 (Homo sapiens), sequence (P80192 whole entry, looked up): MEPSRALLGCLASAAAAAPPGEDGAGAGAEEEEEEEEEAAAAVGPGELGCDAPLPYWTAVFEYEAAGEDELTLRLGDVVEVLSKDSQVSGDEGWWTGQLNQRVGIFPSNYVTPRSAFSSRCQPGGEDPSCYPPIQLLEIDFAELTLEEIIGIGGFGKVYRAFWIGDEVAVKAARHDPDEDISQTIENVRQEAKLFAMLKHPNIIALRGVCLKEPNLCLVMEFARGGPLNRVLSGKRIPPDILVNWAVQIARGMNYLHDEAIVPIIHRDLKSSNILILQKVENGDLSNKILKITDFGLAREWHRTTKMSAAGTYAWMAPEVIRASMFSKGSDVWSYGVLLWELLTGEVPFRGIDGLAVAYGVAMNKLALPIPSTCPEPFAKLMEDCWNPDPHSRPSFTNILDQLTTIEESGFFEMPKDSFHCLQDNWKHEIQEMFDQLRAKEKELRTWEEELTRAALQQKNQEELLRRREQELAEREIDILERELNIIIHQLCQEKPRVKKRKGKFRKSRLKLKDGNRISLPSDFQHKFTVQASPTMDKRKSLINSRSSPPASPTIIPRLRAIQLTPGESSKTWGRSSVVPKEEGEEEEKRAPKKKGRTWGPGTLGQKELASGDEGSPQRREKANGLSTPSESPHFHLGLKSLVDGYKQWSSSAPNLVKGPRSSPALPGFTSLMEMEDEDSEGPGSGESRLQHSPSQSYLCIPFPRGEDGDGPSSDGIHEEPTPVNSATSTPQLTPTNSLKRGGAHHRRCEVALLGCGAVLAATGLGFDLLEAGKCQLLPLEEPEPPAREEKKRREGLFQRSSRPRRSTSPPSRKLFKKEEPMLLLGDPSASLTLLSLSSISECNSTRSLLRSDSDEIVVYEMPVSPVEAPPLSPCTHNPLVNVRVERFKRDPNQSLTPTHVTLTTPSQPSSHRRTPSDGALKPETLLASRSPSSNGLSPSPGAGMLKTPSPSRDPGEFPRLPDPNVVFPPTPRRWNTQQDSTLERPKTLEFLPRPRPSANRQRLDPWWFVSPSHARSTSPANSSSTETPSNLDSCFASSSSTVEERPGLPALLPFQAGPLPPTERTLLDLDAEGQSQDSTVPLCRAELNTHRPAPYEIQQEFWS
Phosphatidylinositol 4,5-bisphosphate 3-kinase catalytic subunit alpha isoform (Homo sapiens), sequence (P42336 whole entry, canonical isoform): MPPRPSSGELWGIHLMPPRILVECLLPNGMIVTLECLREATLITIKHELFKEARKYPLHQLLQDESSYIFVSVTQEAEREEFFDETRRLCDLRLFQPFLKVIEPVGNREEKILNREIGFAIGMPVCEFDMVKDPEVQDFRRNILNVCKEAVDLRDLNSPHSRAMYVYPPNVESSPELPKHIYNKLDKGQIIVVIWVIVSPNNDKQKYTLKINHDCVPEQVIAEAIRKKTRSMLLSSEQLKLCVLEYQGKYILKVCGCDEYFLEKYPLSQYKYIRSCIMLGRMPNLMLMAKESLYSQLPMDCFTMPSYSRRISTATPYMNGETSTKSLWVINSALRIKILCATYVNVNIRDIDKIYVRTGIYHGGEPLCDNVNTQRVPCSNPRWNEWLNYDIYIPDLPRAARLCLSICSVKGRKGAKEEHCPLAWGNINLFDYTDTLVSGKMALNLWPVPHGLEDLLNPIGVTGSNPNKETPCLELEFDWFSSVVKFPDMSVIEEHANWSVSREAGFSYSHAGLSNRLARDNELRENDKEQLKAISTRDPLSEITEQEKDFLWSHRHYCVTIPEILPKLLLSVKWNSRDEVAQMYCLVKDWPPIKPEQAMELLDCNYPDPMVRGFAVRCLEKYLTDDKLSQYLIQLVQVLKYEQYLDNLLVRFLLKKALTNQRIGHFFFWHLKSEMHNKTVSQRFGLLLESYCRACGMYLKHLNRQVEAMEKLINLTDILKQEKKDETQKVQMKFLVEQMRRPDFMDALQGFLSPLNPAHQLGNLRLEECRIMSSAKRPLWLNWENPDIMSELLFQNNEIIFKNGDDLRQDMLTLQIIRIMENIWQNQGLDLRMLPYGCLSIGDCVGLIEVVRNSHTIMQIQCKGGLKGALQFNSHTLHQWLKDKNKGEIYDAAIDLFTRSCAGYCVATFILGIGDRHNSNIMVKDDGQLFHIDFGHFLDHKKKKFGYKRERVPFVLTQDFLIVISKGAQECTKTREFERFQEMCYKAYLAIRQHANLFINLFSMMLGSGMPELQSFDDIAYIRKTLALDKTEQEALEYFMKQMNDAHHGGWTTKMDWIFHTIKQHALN

% of inhibition [1]: 30.9%
Structure (SMILES): CC[C@@H](Nc1c(C#N)c(-c2ccc(-c3cccc(C)c3F)cc2)nc2cnccc12)C(=O)O [BAY-091]

Structure (SMILES): CN(C)C/C=C/C(=O)Nc1ccc(C(=O)N2CCCC(Nc3ncc(Cl)c(-c4c[nH]c5ccccc45)n3)C2)cc1 (stereo unspecified)
% of control [2]: 94%

Structure (SMILES): CN(C)CCOc1ccc(-c2nc(-c3ccncc3)c(-c3ccc4c(c3)CC/C4=N\O)[nH]2)cc1
% of control [3]: 38%

Structure (SMILES): CNC(=O)Nc1ccc(-c2nc(N3CC4CCC(C3)O4)c3cnn(C4CCC5(CC4)OCCO5)c3n2)cc1
% of control [4]: 100%

Structure (SMILES): Cc1cc([C@@H](C)Nc2ccccc2C(=O)O)c2nc(N3CCOCC3)cc(=O)n2c1 [AZD-6482]
% of control [5]: 94%

% of inhibition [6]: 10.8%
Structure (SMILES): CC[C@@H]1[C@H](F)C(=O)N[C@@H]1COc1nccc2cc(C(N)=O)c(OC)cc12 [ZIMLOVISERTIB]

Structure (SMILES): COc1cc(Nc2nc(C)cc(-c3cnn4nc(OC)ccc34)n2)cc(C(F)(F)F)c1
% of control [7]: 93%

Structure (SMILES): O=C(NOC[C@H](O)CO)c1ccc(F)c(F)c1Nc1ccc(I)cc1F
% of control [8]: 95%

IC50 [9]: 4.5 µM
Structure (SMILES): CN(C)CC#Cc1ccc2[nH]c3c(c2c1)-c1nc(N)ncc1CCC3

% of inhibition [10]: -9.9%
Structure (SMILES): Cn1cc(-n2cnc3c(NCc4nc5cc(Cl)c(Cl)cc5[nH]4)nc(N4CCOCC4)nc32)cn1

Structure (SMILES): Cc1cc(F)c(C(=O)Nc2cccc(-c3nncn3C(C)C)n2)cc1-n1cnc(C2CC2)c1
% of control [11]: 98%
